From patent US12522594B2, “2-heteroaryl-3-oxo-2,3-dihydropyridazine-4-carboxamides for the treatment of cancer” (Deutsches Krebsforschungszentrum, priority 2017, dated 2026) come the findings set out here.

pIC50: −log10 of the molar value.

Experiment [1] addresses T1, AHR (Homo sapiens, UniProt P35869).
T1 sequence (P35869 11-848): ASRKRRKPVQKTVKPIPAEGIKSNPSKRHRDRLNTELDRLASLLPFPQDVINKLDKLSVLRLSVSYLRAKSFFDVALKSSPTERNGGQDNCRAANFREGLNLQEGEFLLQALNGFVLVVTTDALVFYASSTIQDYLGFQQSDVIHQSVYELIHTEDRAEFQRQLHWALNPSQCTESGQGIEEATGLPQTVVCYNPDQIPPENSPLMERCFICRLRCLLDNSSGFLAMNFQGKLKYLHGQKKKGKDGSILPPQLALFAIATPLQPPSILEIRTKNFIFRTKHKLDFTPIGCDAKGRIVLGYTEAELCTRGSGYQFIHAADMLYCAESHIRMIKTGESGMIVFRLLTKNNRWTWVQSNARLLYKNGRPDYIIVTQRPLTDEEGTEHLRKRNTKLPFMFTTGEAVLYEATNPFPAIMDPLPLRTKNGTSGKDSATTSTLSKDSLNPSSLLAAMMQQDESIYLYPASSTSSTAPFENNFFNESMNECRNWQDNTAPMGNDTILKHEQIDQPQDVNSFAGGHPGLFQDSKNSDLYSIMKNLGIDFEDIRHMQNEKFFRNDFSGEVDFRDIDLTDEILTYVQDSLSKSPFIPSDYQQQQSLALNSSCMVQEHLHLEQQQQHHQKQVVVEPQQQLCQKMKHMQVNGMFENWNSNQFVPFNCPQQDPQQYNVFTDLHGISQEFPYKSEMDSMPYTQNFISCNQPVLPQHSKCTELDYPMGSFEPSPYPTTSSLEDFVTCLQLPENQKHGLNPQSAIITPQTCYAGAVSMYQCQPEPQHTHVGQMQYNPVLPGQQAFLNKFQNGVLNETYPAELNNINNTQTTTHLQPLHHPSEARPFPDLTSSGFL
As to the kind of experiment: In vitro assay 1: antagonism in human cell line (transactivation assay, U87 cells prestimulated with kynurenic acid, DRE firefly luciferase reporter). The class given is cell-based. Also noted: host or cells: U87 glioblastoma cells, stably transfected with DRE firefly luciferase and renilla reporter constructs. The conditions noted are these: 150 uM kynurenic acid, 20 hours, read-out: Assay 1: AHR-luc Hum Antagonism IC50. Here is the method: (§1) Transactivation Assay in Human Cell Line (In Vitro Assays 1 and 2)
(§2) Transactivation assays were carried out in U87 glioblastoma cells (ATCC) endogenously expressing AHR. In addition the cells were stably transfected with an AHR inducible firefly luciferase reporter gene construct that carried AHR-binding sites (DRE) in its promoter and a renilla reporter gene construct with constitutively active promoter. Kynurenic acid is an endogenous AHR activating ligand and was used to prestimulate test cells prior to testing the antagonistic properties of compounds.
In Vitro Assay 1: Antagonism in Human Cell Line
Normalization was done by positive and negative controls.
(A reporter such as luciferase makes a cellular process visible.)

The target of experiment [2] is T1, AHR. As to the kind of experiment: In vitro assay 2: agonism in human cell line (transactivation assay, U87 cells, DRE firefly luciferase reporter). The conditions noted are these: no kynurenic acid, 20 hours, read-out: Assay 2: AHR-luc Hum Agonism IC50. Also noted: host or cells: U87 glioblastoma cells, stably transfected with DRE firefly luciferase and renilla reporter constructs. It is filed as cell-based. Here is the method:
as §1, §2
In Vitro Assay 2: Agonism in Human Cell Line
As positive activation control cells were incubated with 300 uM kynurenic acid. Normalization was done by positive and negative controls.

Usually pIC50 stands for the negative decadic logarithm of the IC50, by convention in mol/L. On to `O=C(NC[C@H](O)CF)c1cc(-c2ccc(OC(F)(F)F)cc2)nn(-c2cccnc2)c1=O` [Example 296, N-[(2S)-3-Fluoro-2-hydroxypropyl]-3-oxo-2-(pyridin-3-yl)-6-[4-(trifluoromethoxy)phenyl]-2,3-dihydropyridazine-4-carboxamide], for which the pIC50 on AHR [1] is 6.93; at AHR [2] it was less than 4.70.

Regarding `C[C@H](NC(=O)c1cc(-c2ccc(CF)cc2)nn(-c2cccnc2)c1=O)C(C)(C)O` [Example 288, 6-[4-(Fluoromethyl)phenyl]-N-[(2S)-3-hydroxy-3-methylbutan-2-yl]-3-oxo-2-(pyridin-3-yl)-2,3-dihydropyridazine-4-carboxamide], the pIC50 is 6.09 on AHR [1] and less than 4.70 on AHR [2].

On to `C[C@@H](CO)NC(=O)c1cc(-c2ccc(Cl)cc2F)nn(-c2cccnc2)c1=O` [Example 163, 6-(4-Chloro-2-fluorophenyl)-N-[(2S)-1-hydroxypropan-2-yl]-3-oxo-2-(pyridin-3-yl)-2,3-dihydropyridazine-4-carboxamide], for which the pIC50 on AHR [1] is 6.87; on AHR [2], less than 4.70.

`O=C(N[C@@H]1COC[C@@H]1O)c1cc(-c2ccc(C(F)(F)F)cc2)nn(-c2cccnc2)c1=O` (racemic) [Example 107, N-[(3RS,4RS)-4-Hydroxytetrahydrofuran-3-yl]-3-oxo-2-(pyridin-3-yl)-6-[4-(trifluoromethyl)phenyl]-2,3-dihydropyridazine-4-carboxamide]: the pIC50 is 7.91 at AHR [1] and less than 4.70 at AHR [2].

`O=C(N[C@H]1COCC[C@H]1O)c1cc(-c2ccc(C(F)(F)F)nc2)nn(-c2cncc(F)c2)c1=O` [Example 343, 1,5-Anhydro-2,4-dideoxy-2-[({2-(5-fluoropyridin-3-yl)-3-oxo-6-[6-(trifluoromethyl)pyridin-3-yl]-2,3-dihydropyridazine-4-yl}carbonyl)amino]-D-erythro-pentitol]: the pIC50 at AHR [1] is 6.77; on AHR [2], less than 4.70.

As for `O=C(NC(CO)CO)c1cc(-c2ccc(C(F)(F)F)cc2)nn(-c2cccnc2)c1=O` [Example 116, N-(1,3-Dihydroxypropan-2-yl)-3-oxo-2-(pyridin-3-yl)-6-[4-(trifluoromethyl)phenyl]-2,3-dihydropyridazine-4-carboxamide], the pIC50 was 6.94 on AHR [1] and less than 4.70 at AHR [2].

For `O=C(N[C@@H]1COC[C@@H]1O)c1cc(-c2ccc(Cl)cc2)nn(-c2cncc(F)c2)c1=O` (relative stereo) [Example 301, 6-(4-Chlorophenyl)-2-(5-fluoropyridin-3-yl)-N-[(cis)-4-hydroxytetrahydro-furan-3-yl]-3-oxo-2,3-dihydropyridazine-4-carboxamide], the figures for the pIC50 on AHR [1] and at AHR [2] were 7.51 and less than 4.70, respectively.

For `COC[C@H](CO)NC(=O)c1cc(-c2ccc(C(F)(F)F)cc2)nn(-c2cccnc2)c1=O` [Example 111, N-[(2S)-1-Hydroxy-3-methoxypropan-2-yl]-3-oxo-2-(pyridin-3-yl)-6-[4-(trifluoromethyl)phenyl]-2,3-dihydropyridazine-4-carboxamide], the figures for the pIC50 on AHR [1] and at AHR [2] were 7.58 and less than 4.70, respectively.

Turning to `O=C(NC(CO)CO)c1cc(-c2ccc(Cl)cc2)nn(-c2cncc(F)c2)c1=O` [Example 84, 6-(4-Chlorophenyl)-N-(1,3-dihydroxypropan-2-yl)-2-(5-fluoropyridin-3-yl)-3-oxo-2,3-dihydropyridazine-4-carboxamide], the pIC50 on AHR [1] was 6.79; on AHR [2], less than 4.70.

As to `CC(C)(O)CNC(=O)c1cc(-c2ccc(Cl)cc2)nn(-c2cnsc2)c1=O` [Example 222, 6-(4-Chlorophenyl)-N-(2-hydroxy-2-methylpropyl)-3-oxo-2-(1,2-thiazol-4-yl)-2,3-dihydropyridazine-4-carboxamide], the pIC50 is 8.37 at AHR [1] and less than 4.70 at AHR [2].

Turning to `O=C(N[C@H]1CCC[C@@H]1O)c1cc(-c2ccc(OC(F)(F)F)cc2)nn(-c2cccnc2)c1=O` [Example 132, N-[(1S,2S)-2-Hydroxycyclopentyl]-3-oxo-2-(pyridin-3-yl)-6-[4-(trifluoromethoxy)phenyl]-2,3-dihydropyridazine-4-carboxamide], the pIC50 on AHR [1] is 8.16; at AHR [2], less than 4.70.

`C[C@@H](NC(=O)c1cc(-c2ccc(C(F)(F)F)cc2)nn(-c2cnn(C)c2)c1=O)C(C)(C)O` [Example 202, N-[(2R)-3-Hydroxy-3-methylbutan-2-yl]-2-(1-methyl-1H-pyrazol-4-yl)-3-oxo-6-[4-(trifluoromethyl)phenyl]-2,3-dihydropyridazine-4-carboxamide]: the pIC50 at AHR [1] was 9.08; on AHR [2] it was less than 4.70.

As to `O=C(N[C@H](CO)C1CC1)c1cc(-c2ccc(C(F)(F)F)nc2)nn(-c2cncc(F)c2)c1=O` [Example 339, N-[(1S)-1-Cyclopropyl-2-hydroxyethyl]-2-(5-fluoropyridin-3-yl)-3-oxo-6-[6-(trifluoromethyl)pyridin-3-yl]-2,3-dihydropyridazine-4-carboxamide], the pIC50 on AHR [1] was 7.56; on AHR [2] it was less than 4.70.

In the case of `Cn1cc(-n2nc(-c3ccc(OC(F)F)cc3)cc(C(=O)NC(C(C)(C)O)C(F)(F)F)c2=O)cn1` (stereo not shown) [Example 305, 6-[4-(Difluoromethoxy)phenyl]-2-(1-methyl-1H-pyrazol-4-yl)-3-oxo-N-(1,1,1-trifluoro-3-hydroxy-3-methylbutan-2-yl)-2,3-dihydropyridazine-4-carboxamide], the values for the pIC50 on AHR [1] and at AHR [2] were 8.79 and less than 4.70, respectively.

As to `C[C@@H](CO)NC(=O)c1cc(-c2ccc(Cl)cc2)nn(-c2cn[nH]c2)c1=O` [Example 190, (+)-6-(4-Chlorophenyl)-N-[(2S)-1-hydroxypropan-2-yl]-3-oxo-2-(1H-pyrazol-4-yl)-2,3-dihydropyridazine-4-carboxamide], the pIC50 was 7.18 on AHR [1] and less than 4.70 on AHR [2].

Take `O=C(N[C@H](CO)C1CC1)c1cc(-c2ccc(C(F)(F)F)cc2)nn(-c2cnsc2)c1=O` [Example 207, N-[(1S)-1-Cyclopropyl-2-hydroxyethyl]-3-oxo-2-(1,2-thiazol-4-yl)-6-[4-(trifluoromethyl)phenyl]-2,3-dihydropyridazine-4-carboxamide]: the pIC50 on AHR [1] was 8.92; on AHR [2], less than 4.70.

With `O=C(N[C@@H]1CC[C@@H]1O)c1cc(-c2ccc(Cl)cc2)nn(-c2cccnc2)c1=O` (single isomer, unassigned) [Example 249, (+)-6-(4-Chlorophenyl)-N-cis-2-hydroxycyclo-butyl-3-oxo-2-(pyridin-3-yl)-2,3-dihydropyridazine-4-carboxamide], the pIC50 on AHR [1] was 7.82; at AHR [2] it was less than 4.70.

With `O=C(N[C@H]1CCCC(F)(F)[C@@H]1O)c1cc(-c2ccc(OC(F)(F)F)cc2)nn(-c2cccnc2)c1=O` (single isomer, unassigned; enantiomer 1) [Example 141, N-[(trans)-3,3-Difluoro-2-hydroxycyclohexyl]-3-oxo-2-(pyridin-3-yl)-6-[4-(trifluoromethoxy)phenyl]-2,3-dihydropyridazine-4-carboxamide, Enantiomer 1], the figures for the negative logarithm of the IC50 (pIC50) on AHR [1] and on AHR [2] were 6.83 and less than 4.70, respectively.

Take `C[C@H](CO)NC(=O)c1cc(-c2ccc(Cl)cc2)nn(-c2cncc(F)c2)c1=O` [Example 81, 6-(4-Chlorophenyl)-2-(5-fluoropyridin-3-yl)-N-[(2R)-1-hydroxypropan-2-yl]-3-oxo-2,3-dihydropyridazine-4-carboxamide]: the figures for the pIC50 on AHR [1] and at AHR [2] were 6.97 and less than 4.70, respectively.

With `C[C@]1(O)CCC[C@H]1NC(=O)c1cc(-c2ccc(OC(F)(F)F)cc2)nn(-c2cccnc2)c1=O` (single isomer, unassigned) [Example 330, N-[(cis)-2-hydroxy-2-methylcyclopentyl]-3-oxo-2-(pyridin-3-yl)-6-[4-(trifluoromethoxy)phenyl]-2,3-dihydropyridazine-4-carboxamide], the pIC50 at AHR [1] is 7.03; on AHR [2] it was less than 4.70.
